The record followed here is patent US9694016B2 (Novartis AG, priority 2013, dated 2017).

Molecules are shown by their SMILES.

Chain of b-Raf (V600E) (P15056 whole entry V600E): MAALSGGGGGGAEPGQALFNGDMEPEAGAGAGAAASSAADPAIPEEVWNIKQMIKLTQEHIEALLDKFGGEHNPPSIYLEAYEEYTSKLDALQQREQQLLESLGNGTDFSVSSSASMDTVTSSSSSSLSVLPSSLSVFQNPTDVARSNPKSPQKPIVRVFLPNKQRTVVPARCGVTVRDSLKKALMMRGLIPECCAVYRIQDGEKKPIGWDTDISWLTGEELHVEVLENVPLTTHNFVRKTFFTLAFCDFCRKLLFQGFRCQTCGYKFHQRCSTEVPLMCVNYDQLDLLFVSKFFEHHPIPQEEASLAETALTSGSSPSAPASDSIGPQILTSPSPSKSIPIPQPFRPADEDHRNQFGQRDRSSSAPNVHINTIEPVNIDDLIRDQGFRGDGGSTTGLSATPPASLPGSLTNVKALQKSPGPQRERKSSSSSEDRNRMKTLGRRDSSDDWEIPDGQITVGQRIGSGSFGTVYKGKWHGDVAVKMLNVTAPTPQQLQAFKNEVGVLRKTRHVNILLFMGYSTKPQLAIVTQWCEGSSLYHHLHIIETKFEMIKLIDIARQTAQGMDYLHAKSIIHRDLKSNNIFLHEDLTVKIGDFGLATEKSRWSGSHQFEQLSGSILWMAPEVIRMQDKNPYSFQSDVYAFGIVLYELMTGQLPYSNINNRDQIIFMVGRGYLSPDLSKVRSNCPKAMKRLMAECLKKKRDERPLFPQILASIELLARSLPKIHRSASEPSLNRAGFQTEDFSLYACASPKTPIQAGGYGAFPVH

The first assay has as its target b-Raf (V600E) (Homo sapiens (Human), UniProt P15056, V600E). Conditions: read-out: b-Raf IC-50; AlphaScreen, 60 min pre-incubation, 3 hours reaction. For orientation: In Alpha technology, singlet oxygen from a donor bead excites a nearby acceptor bead.
On to `CCOc1nnc(-c2cc(NC(=O)c3cnnc(C(F)(F)F)c3)ccc2C)cc1N1CCOCC1` [Example 570, N-(3-(6-ethoxy-5-morpholinopyridazin-3-yl)-4-methylphenyl)-6-(trifluoromethyl)pyridazine-4-carboxamide], for which the IC50 was 0.8 nM. The same measure, in the same setting: for `COc1nnc(-c2cc(NC(=O)c3ccnc(C(C)(C)F)c3)ccc2C)cc1N1CCOCC1` [Example 552, 2-(2-fluoropropan-2-yl)-N-(3-(6-methoxy-5-morpholinopyridazin-3-yl)-4-methylphenyl)isonicotinamide] the value was 3 nM; for `Cc1ncc(NC(=O)c2cccc(C(F)(F)F)c2)cc1-c1cc(N2CCOCC2)nc(N[C@H](C)CO)n1` [Example 748, (R)—N-(5-(2-((1-hydroxypropan-2-yl)amino)-6-morpholinopyrimidin-4-yl)-6-methylpyridin-3-yl)-3-(trifluoromethyl)benzamide], 1.9 nM; for `CCNc1nc(-c2cc(NC(=O)c3cccc(C(C)(F)F)c3)ccc2C)cc(N2CCOCC2)n1` [Example 701, 3-(1,1-difluoroethyl)-N-(3-(2-(ethylamino)-6-morpholinopyrimidin-4-yl)-4-methylphenyl)benzamide], 1.3 nM. On the same count and under the same terms, for `Cc1ccc(NC(=O)c2ccnc(S(C)(=O)=O)c2)cc1-c1cc(N2CCOCC2)n2nccc2n1` [Example 806] the value was 1.1 nM; for `Cc1ccc(NC(=O)c2ccnc(C(F)(F)F)c2)cc1-c1cc(N2CCOCC2)nc(N(C)C)n1` [Example 758, N-(3-(2-(dimethylamino)-6-morpholinopyrimidin-4-yl)-4-methylphenyl)-2-(trifluoromethyl)isonicotinamide], 2.8 nM. In the case of `Cc1ccc(NC(=O)c2ccnc(C(C)(C)C)c2)cc1-c1cc(N2CCOCC2)n(C)c(=O)c1` [Example 472, 2-(tert-butyl)-N-(4-methyl-3-(1-methyl-6-morpholino-2-oxo-1,2-dihydropyridin-4-yl)phenyl)isonicotinamide], the IC50 worked out at 2.1 nM. As to `Cc1ccc(NC(=O)c2ccnc(C(C)(C)C)c2)cc1-c1cc(N2CCOCC2)c2nccn2n1` [Example 845, 2-(tert-butyl)-N-(4-methyl-3-(8-morpholinoimidazo[1,2-b]pyridazin-6-yl)phenyl)isonicotinamide], the IC50 amounted to 0.9 nM. With `Cc1ncc(NC(=O)c2ccnc(C(C)(C)C#N)c2)cc1-c1cc(N2CCOCC2)c(OC2CCOCC2)nn1` [Example 633, 2-(2-cyanopropan-2-yl)-N-(6-methyl-5-(5-morpholino-6-((tetrahydro-2H-pyran-4-yl)oxy)pyridazin-3-yl)pyridin-3-yl)isonicotinamide], the IC50 came out at 7.2 nM. Same read-out and setting: for `CCNc1nc(-c2cc(C(=O)Nc3ccccc3)ccc2C)cc(N2CCOCC2)n1` [Example 731, 3-(2-(ethylamino)-6-morpholinopyrimidin-4-yl)-4-methyl-N-phenylbenzamide] the value was 4.4 nM; for `CCNc1nc(-c2cc(NC(=O)c3ccnc(C4(C#N)CC4)c3)cnc2C)cc(N2CCOCC2)n1` [Example 728, 2-(1-cyanocyclopropyl)-N-(5-(2-(ethylamino)-6-morpholinopyrimidin-4-yl)-6-methylpyridin-3-yl)isonicotinamide], 4.4 nM; for `Cc1ccc(C(=O)Nc2cccc(C(F)(F)F)c2)cc1-c1cc(N2CCOCC2)n(C)c(=O)c1` [Example 517, 4-methyl-3-(1-methyl-6-morpholino-2-oxo-1,2-dihydropyridin-4-yl)-N-(3-(trifluoromethyl)phenyl)benzamide], 1.2 nM.

Take `Cc1ncc(NC(=O)c2ccccc2)cc1-c1cc(N2CCOCC2)n(C)c(=O)c1` [Example 503, N-(1′,2-dimethyl-6′-morpholino-2′-oxo-1′,2′-dihydro-[3,4′-bipyridin]-5-yl)benzamide]: the IC50 came to 200 nM.

Staying with this assay, now noted: read-out: b-Raf IC-50; AlphaScreen, 60 min pre-incubation, reaction 3 hours at room temperature.
For the compound `Cc1ncc(NC(=O)c2ccnc(C(C)(C)O)c2)cc1-c1cc(N2CCOCC2)c2nccn2n1` [Example 870, 2-(2-hydroxypropan-2-yl)-N-(6-methyl-5-(8-morpholinoimidazo[1,2-b]pyridazin-6-yl)pyridin-3-yl)isonicotinamide], the IC50 stood at 7.5 nM. As to `Cc1ccc(NC(=O)c2cc(C(F)(F)F)ccn2)cc1-c1cc(OCCO)nc(N2CCOCC2)c1` [Example 1163, N-(3-(2-(2-hydroxyethoxy)-6-morpholinopyridin-4-yl)-4-methylphenyl)-4-(trifluoromethyl)picolinamide], the IC50 came to 1.12 nM.

`CCOc1cc(-c2cc(NC(=O)c3ccnc(C(F)(F)F)c3)ccc2C)cc(N2CCOCC2)n1` [Example 1133, N-(3-(2-ethoxy-6-morpholinopyridin-4-yl)-4-methylphenyl)-2-(trifluoromethyl)isonicotinamide]: the IC50 amounted to 1.29 nM.

For the compound `Cc1ccc(NC(=O)c2ccnc(C(C)C)c2)cc1-c1cc(N2CCOCC2)nc(N2CCOCC2)c1` [Example 1117, N-(3-(2,6-dimorpholinopyridin-4-yl)-4-methylphenyl)-2-isopropylisonicotinamide], the IC50 is 1.31 nM. As to `Cc1ncc(NC(=O)c2ccnc(C(C)(C)C#N)c2)cc1-c1cc(N2CCOCC2)nc(N2CC(O)C2)c1` [Example 1083, 2-(2-cyanopropan-2-yl)-N-(2′-(3-hydroxyazetidin-1-yl)-2-methyl-6′-morpholino-[3,4′-bipyridin]-5-yl)isonicotinamide], the IC50 was found to be 35.2 nM.

In the case of `Cc1ncc(NC(=O)c2ccnc(C(C)(F)F)c2)cc1-c1cc(N2CCOCC2)nc(N2CC(O)C2)c1` [Example 1080, 2-(1,1-difluoroethyl)-N-(2′-(3-hydroxyazetidin-1-yl)-2-methyl-6′-morpholino-[3,4′-bipyridin]-5-yl)isonicotinamide], the IC50 was 12.9 nM. Still for that read-out and setting: for `Cc1ncc(NC(=O)c2ccnc(C(F)(F)F)c2)cc1-c1cc(N2CCOCC2)nc(N2CC(O)C2)c1` [Example 1088, N-(2′-(3-hydroxyazetidin-1-yl)-2-methyl-6′-morpholino-[3,4′-bipyridin]-5-yl)-2-(trifluoromethyl)isonicotinamide] the value was 4.06 nM; for `Cc1ccc(NC(=O)c2cccc(S(C)(=O)=O)c2)cc1-c1cc(N2CCOCC2)nc(N2CC(C)(O)C2)c1` [Example 1074, N-(3-(2-(3-hydroxy-3-methylazetidin-1-yl)-6-morpholinopyridin-4-yl)-4-methylphenyl)-3-(methylsulfonyl)benzamide], 1.86 nM; for `Cc1ncc(NC(=O)c2cccc(C(C)(C)S(C)(=O)=O)c2)cc1-c1cc(N2CCOCC2)nc(N2CC(O)C2)c1` [Example 1091, N-(2′-(3-hydroxyazetidin-1-yl)-2-methyl-6′-morpholino-[3,4′-bipyridin]-5-yl)-3-(2-(methylsulfonyl)propan-2-yl)benzamide], 1110 nM. On the same count and under the same terms, for `Cc1ccc(NC(=O)c2ccnc(C(C)(C)C#N)c2)cc1-c1cc(N2CCOCC2)c(S(C)(=O)=O)nn1` [Example 931, 2-(2-cyanopropan-2-yl)-N-(4-methyl-3-(6-(methylsulfonyl)-5-morpholinopyridazin-3-yl)phenyl)isonicotinamide] the value was 2.7 nM; for `Cc1ncc(NC(=O)c2ccnc(C(C)(F)F)c2)cc1-c1cc(N2CCOCC2)c2nccn2n1` [Example 871, 2-(1,1-difluoroethyl)-N-(6-methyl-5-(8-morpholinoimidazo[1,2-b]pyridazin-6-yl)pyridin-3-yl)isonicotinamide], 0.6 nM.

Still in this assay, the particulars now being: read-out: b-Raf IC-50; Table 2; AlphaScreen, 3 hours reaction.
Turning to `CCOc1ncc(-c2cc(NC(=O)c3cc(C4CC4)on3)cnc2C)cc1N1CCOCC1` [Example 245, 5-cyclopropyl-N-(6′-ethoxy-2-methyl-5′-morpholino-[3,3′-bipyridin]-5-yl)isoxazole-3-carboxamide], the IC50 was 1.3 nM.

Turning to `Cc1ncc(NC(=O)c2cccc(C(F)(F)F)c2)cc1-c1cnc(OCCO)c(N2CCOCC2)c1` [Example 145, N-(6′-(2-hydroxyethoxy)-2-methyl-5′-morpholino-[3,3′-bipyridin]-5-yl)-3-(trifluoromethyl)benzamide], the IC50 was determined as 3 nM. On to `Cc1ccc(NC(=O)c2cccc(C(F)F)c2)cc1-c1cc(N2CCOCC2)c(=O)n(C)n1` [Example 190, 3-(difluoromethyl)-N-(4-methyl-3-(1-methyl-5-morpholino-6-oxo-1,6-dihydropyridazin-3-yl)phenyl)benzamide], for which the IC50 stood at 2.2 nM. `Cc1ccc(NC(=O)c2cccc(C(F)(F)F)c2)cc1-c1cc(N2CCS(=O)(=O)CC2)nc(N2CCOCC2)n1` [Example 6, N-(3-(6-(1,1-dioxidothiomorpholino)-2-morpholinopyrimidin-4-yl)-4-methylphenyl)-3-(trifluoromethyl)benzamide]: the IC50 was found to be 1.3 nM.

`Cn1cc(-c2cc(NC(=O)c3cccc(C(F)(F)F)c3)ccc2Cl)cc(N2CCOCC2)c1=O` [Example 409, N-(4-chloro-3-(1-methyl-5-morpholino-6-oxo-1,6-dihydropyridin-3-yl)phenyl)-3-(trifluoromethyl)benzamide]: the IC50 turned out to be 1.7 nM.

On to `CCOc1ncc(-c2cc(NC(=O)c3cccc(C(F)(F)F)c3)cnc2C)cc1N1CCOCC1` [Example 248, N-(6′-ethoxy-2-methyl-5′-morpholino-[3,3′-bipyridin]-5-yl)-3-(trifluoromethyl)benzamide], for which the IC50 was determined as 1.2 nM.

In the case of `COc1ncc(-c2cc(NC(=O)c3ccnc(C(C)(C)F)c3)cnc2Cl)cc1N1CCOCC1` [Example 262, N-(2-chloro-6′-methoxy-5′-morpholino-[3,3′-bipyridin]-5-yl)-2-(2-fluoropropan-2-yl)isonicotinamide], the IC50 was determined as 3.4 nM. `Cc1ncc(NC(=O)c2cccc(C(F)(F)F)c2)cc1-c1cnc(O[C@H]2CC[C@@H](O)CC2)c(N2CCOCC2)c1` [Example 317, N-(6′-(((1s,4s)-4-hydroxycyclohexyl)oxy)-2-methyl-5′-morpholino-[3,3′-bipyridin]-5-yl)-3-(trifluoromethyl)benzamide]: the IC50 was 1.6 nM. Regarding `Cc1ncc(NC(=O)c2cccc(C(F)(F)F)c2)cc1-c1cc(N2CCOCC2)c(=O)n(CCC#N)c1` [Example 333, N-(1′-(2-cyanoethyl)-2-methyl-5′-morpholino-6′-oxo-1′,6′-dihydro-[3,3′-bipyridin]-5-yl)-3-(trifluoromethyl)benzamide], the IC50 stood at 11.4 nM.
